Here are results for 19 compounds from ChEMBL document CHEMBL1136642, “Substituted 4-methylquinolines as a new class of anti-tuberculosis agents” (Bioorg Med Chem Lett, 2003).

For test [1], the system named is Mycobacterium tuberculosis. In words: Minimum inhibitory concentration required to inhibit 90% of the inoculum of tuberculosis H37Rv. Format: functional.
In test [2] the test system is Mycobacterium tuberculosis. The test is described as follows: In vitro anti-mycobacterial activity against Mycobacterium tuberculosis H37Rv. In kind it is functional. The arrangement: concentration or dose not given beside the values.
Test [3] can be described thus: Ratio of minimum bactericidal concentration (MBC) against RMP-R to that of minimum inhibitory concentration (MIC) to H37Rv in Alamar assay(Mycobacterium tuberculosis). Format: functional.
Test [4] can be described thus: Ratio of minimum bactericidal concentration (MBC) against H37Rv to that of minimum inhibitory concentration (MIC) to H37Rv in Alamar assay(Mycobacterium tuberculosis). Format: functional.
The subject of test [5] is Mycobacterium tuberculosis. In words: Minimum inhibitory concentration against Mycobacterium tuberculosis strain, EMB-R. Format: functional.
In test [6] the test system is Mycobacterium tuberculosis. In words: Minimum inhibitory concentration against Mycobacterium tuberculosis strain, CIP-R. In kind it is functional.
Test [7] relates to Mycobacterium tuberculosis. In words: Minimum inhibitory concentration against Mycobacterium tuberculosis strain, RMP-R. In kind it is functional.
Test [8] has as its system Mycobacterium tuberculosis. The test is described as follows: Minimum inhibitory concentration against Mycobacterium tuberculosis strain, INH-R. In kind it is functional.
Test [9] has as its system Mycobacterium tuberculosis. In words: Minimum bactericidal concentration (MBC) against INH-R. Format: functional.
For test [10], the system named is Mycobacterium tuberculosis. The test is described as follows: Minimum inhibitory concentration against Mycobacterium tuberculosis strain, KM-R. In kind it is functional.
In test [11] the test system is Mycobacterium tuberculosis. In words: Minimum bactericidal concentration (MBC) against H37Rv. Format: functional.
A short description of test [12]: Ratio of minimum bactericidal concentration (MBC) against INH-R to that of minimum inhibitory concentration (MIC) to H37Rv in Alamar assay(Mycobacterium tuberculosis). In kind it is functional.
In test [13] the test system is Mycobacterium tuberculosis. In words: Minimum bactericidal concentration (MBC) against RMP-R. In kind it is functional.
In test [14] the test system is Vero. In words: In vitro cytotoxicity was determined against VERO cells. Format: functional, cell-based. Conditions: Chlorocebus sabaeus.
Test [15] concerns Mycobacterium tuberculosis. The test is described as follows: Minimum inhibitory concentration against Mycobacterium tuberculosis strain H37Rv, using Alamar assay. Format: functional.
Test [16] concerns Mycobacterium tuberculosis. The test is described as follows: Minimum inhibitory concentration against Mycobacterium tuberculosis strain, Erdman. Format: functional.

Converted amounts (≈) assume the structure as drawn.

As to `Cc1cc(C2CCC2)nc2c(C3CCC3)cccc12`, the minimal inhibitory concentration (MIC) (as a rule, the smallest concentration in the dilution series that meets the test's criterion for growth inhibition) in test [1] came to 12.5 µg/mL (≈ 49.7 µM). The Inhibition (commonly the share of the control response that was lost under treatment) in test [2] is 100%.

Consider `Cc1cc(C2CCCC2)nc2ccccc12`, for which, in test [1], the MIC is over 6.25 µg/mL. In addition, in test [2], the Inhibition is 74%.

`Cc1cc(C23CC4CC(CC(C4)C2)C3)nc2ccccc12` showed a minimal inhibitory concentration (MIC) in test [1] of over 69.2 µg/mL. The same compound came in with an Inhibition in test [2] of 76%.

For the compound `CCCCCCc1cc(C)c2ccccc2n1`, the MIC in test [1] is over 6.25 µg/mL. The Inhibition in [2] came to 20%.

Regarding `CCCCc1cc(C)c2ccccc2n1`, the MIC in test [1] was over 6.25 µg/mL. In test [2], this compound yielded an Inhibition of 28%.

Take `Cc1cc(C(C)C)nc2ccccc12`: the minimum inhibitory concentration (MIC) in [1] is over 6.25 µg/mL. The compound also came in with an Inhibition in test [2] of 57%.

In test [1], `Cc1cc(C2CCCCC2)nc2ccccc12` yielded a minimal inhibitory concentration (MIC) of over 6.25 µg/mL. Moreover, the Inhibition in test [2] came out at 16%.

`Cc1cc(C2CCCC2)nc2c(C3CCCC3)cccc12`: the Ratio is 8 µg/mL in test [3], 2 µg/mL in test [4] and 4 µg/mL in [12]. The MIC was 12.5 µg/mL (≈ 44.7 µM) in [5]; 12.5 µg/mL (≈ 44.7 µM) in test [6]; 12.5 µg/mL (≈ 44.7 µM) in [7]; 12.5 µg/mL (≈ 44.7 µM) in test [8]; 25 µg/mL (≈ 89.5 µM) in test [10]; over 6.25 µg/mL in test [1]. In addition, the MIC in [15] amounted to 25 µg/mL (≈ 89.5 µM); in test [16], 50 µg/mL (≈ 179 µM). In addition, the values for the MBC in [9], in test [11] and in test [13] were 100 µg/mL (≈ 358 µM), 50 µg/mL (≈ 179 µM) and 200 µg/mL (≈ 716 µM), respectively. In test [2], this compound displayed an Inhibition of 100%. The half-inhibitory concentration (IC50) (usually the concentration that inhibits the measured activity by half) in test [14] is over 50 µg/mL.

In turn, `Cc1ccnc2ccccc12` showed an MIC in [1] of over 6.25 µg/mL. The same compound gave an Inhibition in [2] of 0%.

Consider `CCCc1cc(C)c2ccccc2n1`, for which the MIC in test [1] was over 6.25 µg/mL. For the same compound, the Inhibition in test [2] was determined as 30%.

`CCCCCc1cc(C)c2ccccc2n1` registered an MIC in [1] of over 6.25 µg/mL. The Inhibition in [2] is recorded as 24%.

`Cc1cc(C(C)C)nc2c(C(C)C)cccc12` displayed a minimum inhibitory concentration (MIC) in [1] of over 6.25 µg/mL. Further, the Inhibition in test [2] was 71%.

The compound `CCCCc1cc(C)c2cccc(CCCC)c2n1` registered an MIC in test [1] of 6.25 µg/mL (≈ 24.5 µM). In test [2], this compound showed an Inhibition of 33%.

In [1], `Cc1cc(C2CCCCC2)nc2c(C3CCCCC3)cccc12` returned a minimum inhibitory concentration (MIC) of over 6.25 µg/mL. Also, the Inhibition in [2] came out at 53%.

As to `Cc1cc(C2CC2)nc2ccccc12`, in [1], the MIC is over 6.25 µg/mL. The same compound showed an Inhibition in test [2] of 29%.

As for `CCCCCc1cc(C)c2cccc(CCCCC)c2n1`, the MIC in test [1] was over 6.25 µg/mL. In [2], this compound gave an Inhibition of 29%.

As to `Cc1cc(C2CCC2)nc2ccccc12`, the MIC in test [1] is over 6.25 µg/mL. Moreover, the Inhibition in test [2] amounted to 67%.

In test [1], `CCCCCCc1cc(C)c2cccc(CCCCCC)c2n1` yielded a minimum inhibitory concentration (MIC) of over 6.25 µg/mL. Besides, the Inhibition in test [2] stood at 23%.

The compound `CCCc1cc(C)c2cccc(CCC)c2n1` gave a minimum inhibitory concentration (MIC) in [1] of over 6.25 µg/mL. In addition, the Inhibition in test [2] stood at 36%.
